Experiment [1] has as its target T1, Bone morphogenetic protein receptor type-2 (Homo sapiens, UniProt Q13873).
T1 sequence (Q13873 whole entry): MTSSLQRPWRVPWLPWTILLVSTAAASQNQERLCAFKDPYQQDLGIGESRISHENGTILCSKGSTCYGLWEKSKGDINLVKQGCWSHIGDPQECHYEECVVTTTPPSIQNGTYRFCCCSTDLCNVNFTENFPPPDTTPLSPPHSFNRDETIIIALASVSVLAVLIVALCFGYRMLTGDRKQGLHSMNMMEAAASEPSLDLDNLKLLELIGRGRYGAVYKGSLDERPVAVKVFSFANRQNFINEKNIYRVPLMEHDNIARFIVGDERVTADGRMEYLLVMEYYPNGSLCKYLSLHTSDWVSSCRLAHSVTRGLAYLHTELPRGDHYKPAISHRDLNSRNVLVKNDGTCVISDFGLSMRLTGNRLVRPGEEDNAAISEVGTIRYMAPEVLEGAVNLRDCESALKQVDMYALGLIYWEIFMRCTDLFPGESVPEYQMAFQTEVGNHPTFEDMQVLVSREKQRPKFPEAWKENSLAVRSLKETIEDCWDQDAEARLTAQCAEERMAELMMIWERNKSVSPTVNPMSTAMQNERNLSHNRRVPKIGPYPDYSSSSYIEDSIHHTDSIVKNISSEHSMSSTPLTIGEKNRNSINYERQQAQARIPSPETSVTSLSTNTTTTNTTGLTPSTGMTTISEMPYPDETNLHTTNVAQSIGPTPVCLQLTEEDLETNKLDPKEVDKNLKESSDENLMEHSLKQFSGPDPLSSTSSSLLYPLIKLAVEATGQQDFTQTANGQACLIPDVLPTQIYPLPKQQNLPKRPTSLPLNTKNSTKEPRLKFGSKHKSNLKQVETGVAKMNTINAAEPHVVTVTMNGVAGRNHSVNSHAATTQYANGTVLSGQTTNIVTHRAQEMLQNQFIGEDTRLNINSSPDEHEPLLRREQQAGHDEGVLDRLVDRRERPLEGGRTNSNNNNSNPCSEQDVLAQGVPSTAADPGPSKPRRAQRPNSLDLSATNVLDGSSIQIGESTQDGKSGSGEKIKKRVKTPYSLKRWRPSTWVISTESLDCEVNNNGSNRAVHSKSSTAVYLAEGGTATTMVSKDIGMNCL

Experiment [2] has as its target T2, Serine/threonine-protein kinase 4 (Homo sapiens, UniProt Q13043).
T2 sequence (Q13043 whole entry): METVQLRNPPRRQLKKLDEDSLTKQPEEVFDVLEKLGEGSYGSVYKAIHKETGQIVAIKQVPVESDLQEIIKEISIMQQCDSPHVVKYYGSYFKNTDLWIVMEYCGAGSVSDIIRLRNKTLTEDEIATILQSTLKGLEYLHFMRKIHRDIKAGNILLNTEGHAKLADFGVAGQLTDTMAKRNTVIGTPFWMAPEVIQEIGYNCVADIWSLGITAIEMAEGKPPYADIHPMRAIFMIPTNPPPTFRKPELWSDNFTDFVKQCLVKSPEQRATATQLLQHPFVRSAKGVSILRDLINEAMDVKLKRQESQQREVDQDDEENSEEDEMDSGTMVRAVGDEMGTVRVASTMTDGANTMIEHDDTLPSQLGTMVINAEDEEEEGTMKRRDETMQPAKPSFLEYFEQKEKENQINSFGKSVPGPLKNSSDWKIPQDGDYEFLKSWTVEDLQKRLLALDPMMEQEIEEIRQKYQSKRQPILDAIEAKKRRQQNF

For experiment [3], the target named is T3, Serine/threonine-protein kinase Nek3 (Homo sapiens, UniProt P51956).
T3 sequence (P51956 whole entry): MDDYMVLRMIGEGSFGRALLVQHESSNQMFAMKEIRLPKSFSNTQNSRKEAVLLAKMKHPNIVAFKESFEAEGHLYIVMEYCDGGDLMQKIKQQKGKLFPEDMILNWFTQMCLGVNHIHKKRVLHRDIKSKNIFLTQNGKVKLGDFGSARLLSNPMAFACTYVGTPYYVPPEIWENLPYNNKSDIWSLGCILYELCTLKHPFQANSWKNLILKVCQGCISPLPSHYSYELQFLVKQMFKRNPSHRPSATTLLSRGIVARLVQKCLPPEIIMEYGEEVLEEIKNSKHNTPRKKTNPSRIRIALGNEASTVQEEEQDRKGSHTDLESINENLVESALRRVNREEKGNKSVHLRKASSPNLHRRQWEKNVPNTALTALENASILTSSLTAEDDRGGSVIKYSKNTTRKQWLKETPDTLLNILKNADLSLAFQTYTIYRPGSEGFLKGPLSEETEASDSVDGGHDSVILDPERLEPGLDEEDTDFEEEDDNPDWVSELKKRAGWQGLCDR

For experiment [4], the target named is Fibroblast growth factor receptor 1 (Homo sapiens, UniProt P11362).
For experiment [5], the target named is Mitogen-activated protein kinase kinase kinase kinase 1 (Homo sapiens, UniProt Q92918).
Experiment [6] addresses Ribosomal protein S6 kinase alpha-3 (Homo sapiens, UniProt P51812).

Each structure is given as a SMILES string. The source made the active and inactive calls. Cut-off read from the data, not from the text of the source: actives have a measured Kd and inactives only a lower limit.
Note: in the data inactive means no Kd found up to 30 µM.

Sequence of Mitogen-activated protein kinase kinase kinase kinase 1 (Q92918 whole entry): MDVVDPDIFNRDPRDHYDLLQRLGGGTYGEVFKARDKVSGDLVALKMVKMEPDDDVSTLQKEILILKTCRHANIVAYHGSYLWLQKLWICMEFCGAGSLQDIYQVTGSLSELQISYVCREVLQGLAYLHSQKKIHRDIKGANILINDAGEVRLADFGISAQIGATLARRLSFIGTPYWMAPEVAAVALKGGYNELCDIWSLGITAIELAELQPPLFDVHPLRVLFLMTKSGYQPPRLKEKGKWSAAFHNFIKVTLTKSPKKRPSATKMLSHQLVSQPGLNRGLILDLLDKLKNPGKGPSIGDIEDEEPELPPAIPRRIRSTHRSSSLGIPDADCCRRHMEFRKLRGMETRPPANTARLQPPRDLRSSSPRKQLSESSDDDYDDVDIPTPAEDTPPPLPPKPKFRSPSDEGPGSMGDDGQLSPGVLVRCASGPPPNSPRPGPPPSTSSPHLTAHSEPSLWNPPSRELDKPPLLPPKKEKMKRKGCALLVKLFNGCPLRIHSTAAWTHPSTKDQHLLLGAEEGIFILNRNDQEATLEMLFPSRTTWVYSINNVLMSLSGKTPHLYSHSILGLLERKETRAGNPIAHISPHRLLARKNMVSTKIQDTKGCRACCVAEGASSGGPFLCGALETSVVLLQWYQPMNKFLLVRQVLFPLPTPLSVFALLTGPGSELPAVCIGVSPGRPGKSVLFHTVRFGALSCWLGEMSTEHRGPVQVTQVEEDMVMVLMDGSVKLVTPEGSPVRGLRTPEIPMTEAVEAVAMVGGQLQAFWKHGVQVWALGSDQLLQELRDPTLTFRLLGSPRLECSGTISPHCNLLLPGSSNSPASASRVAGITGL
Sequence of Fibroblast growth factor receptor 1 (P11362 whole entry): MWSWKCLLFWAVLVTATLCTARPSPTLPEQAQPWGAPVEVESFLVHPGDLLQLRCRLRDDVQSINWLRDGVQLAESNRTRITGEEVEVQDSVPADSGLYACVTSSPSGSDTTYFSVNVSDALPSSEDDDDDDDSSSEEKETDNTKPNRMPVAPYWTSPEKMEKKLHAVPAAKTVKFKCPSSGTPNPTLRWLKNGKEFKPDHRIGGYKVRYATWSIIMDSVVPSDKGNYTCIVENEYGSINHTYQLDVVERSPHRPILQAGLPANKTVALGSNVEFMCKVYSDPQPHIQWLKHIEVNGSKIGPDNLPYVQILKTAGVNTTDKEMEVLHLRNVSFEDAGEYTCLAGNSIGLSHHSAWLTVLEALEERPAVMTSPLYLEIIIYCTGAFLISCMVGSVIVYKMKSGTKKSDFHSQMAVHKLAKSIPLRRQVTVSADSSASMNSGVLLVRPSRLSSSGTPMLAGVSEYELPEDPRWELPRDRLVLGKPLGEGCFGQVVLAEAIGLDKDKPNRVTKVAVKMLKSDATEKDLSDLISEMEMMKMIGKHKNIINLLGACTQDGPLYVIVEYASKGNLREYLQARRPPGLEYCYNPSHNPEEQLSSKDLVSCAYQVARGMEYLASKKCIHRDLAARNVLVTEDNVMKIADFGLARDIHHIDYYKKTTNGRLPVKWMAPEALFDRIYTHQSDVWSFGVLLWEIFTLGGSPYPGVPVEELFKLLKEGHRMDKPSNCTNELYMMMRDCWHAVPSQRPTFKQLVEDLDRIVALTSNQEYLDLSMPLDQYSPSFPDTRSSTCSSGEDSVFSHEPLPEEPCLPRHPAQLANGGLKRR
Sequence of Ribosomal protein S6 kinase alpha-3 (P51812 whole entry): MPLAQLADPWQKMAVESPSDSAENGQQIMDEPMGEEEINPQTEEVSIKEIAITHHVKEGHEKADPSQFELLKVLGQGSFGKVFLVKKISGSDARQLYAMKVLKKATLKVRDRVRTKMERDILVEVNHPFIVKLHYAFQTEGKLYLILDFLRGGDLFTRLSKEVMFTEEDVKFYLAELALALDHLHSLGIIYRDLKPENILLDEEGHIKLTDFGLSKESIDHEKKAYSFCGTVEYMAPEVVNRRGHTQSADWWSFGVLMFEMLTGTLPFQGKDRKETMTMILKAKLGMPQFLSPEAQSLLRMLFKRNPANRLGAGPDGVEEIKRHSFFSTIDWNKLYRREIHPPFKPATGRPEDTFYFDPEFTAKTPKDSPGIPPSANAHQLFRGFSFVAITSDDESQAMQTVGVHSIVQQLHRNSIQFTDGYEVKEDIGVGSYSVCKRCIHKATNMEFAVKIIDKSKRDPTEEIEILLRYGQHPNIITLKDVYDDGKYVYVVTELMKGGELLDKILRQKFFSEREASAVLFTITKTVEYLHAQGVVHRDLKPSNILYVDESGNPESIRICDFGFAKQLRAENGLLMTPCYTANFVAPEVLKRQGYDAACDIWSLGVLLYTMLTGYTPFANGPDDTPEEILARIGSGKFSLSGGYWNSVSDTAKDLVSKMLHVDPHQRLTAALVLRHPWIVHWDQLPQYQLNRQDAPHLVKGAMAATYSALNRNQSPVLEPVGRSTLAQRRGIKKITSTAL

What is called Kd is the concentration at which binding is half-saturated. As to `COc1cc2nccc(Oc3ccc(NC(=O)NC4CC4)c(Cl)c3)c2cc1C(N)=O` [LENVATINIB], the Kd in experiment [1], in experiment [2], in experiment [3], in experiment [4], in experiment [5] and in experiment [6] was > 30 µM (inactive) each time.
Consider `CO[C@H]1C[C@@H]2CC[C@@H](C)[C@@](O)(O2)C(=O)C(=O)N2CCCC[C@H]2C(=O)O[C@H]([C@H](C)C[C@@H]2CC[C@@H](OCCO)[C@H](OC)C2)CC(=O)[C@H](C)/C=C(\C)[C@@H](O)[C@@H](OC)C(=O)[C@H](C)C[C@H](C)/C=C/C=C/C=C/1C` [EVEROLIMUS], for which the Kd in experiment [1], in experiment [2], in experiment [3], in experiment [4], in experiment [5] and in experiment [6] was > 30 µM (inactive) throughout.
Consider `Cc1ccc(NC(=O)c2ccc(CN3CC[C@H](N(C)C)C3)c(C(F)(F)F)c2)cc1Nc1nccc(-c2cncnc2)n1` [BAFETINIB], for which the Kd in experiment [1], in experiment [2], in experiment [3], in experiment [4], in experiment [5] and in experiment [6] was > 30 µM (inactive) throughout.
`CC(C)Nc1cc(-c2c[nH]c(C(=O)N[C@H](CO)c3cccc(Cl)c3)c2)c(Cl)cn1` [ULIXERTINIB]: the Kd in experiment [1], in experiment [2], in experiment [3], in experiment [4], in experiment [5] and in experiment [6] was > 30 µM (inactive) throughout.
Take `O=C(Nc1cccc(Cl)c1)Nc1ncc(CCNc2ncnc3ccsc23)s1` [SNS-314]: the Kd in experiment [1], in experiment [2], in experiment [3] and in experiment [5] was > 30 µM (inactive) throughout.
Regarding `O=C1NC(=O)/C(=C/c2ccc3nccc(-c4ccncc4)c3c2)S1` [GSK-1059615], the Kd in experiment [1], in experiment [2], in experiment [3], in experiment [4], in experiment [5] and in experiment [6] was > 30 µM (inactive) throughout.
Take `COc1cc(CCc2cc(NC(=O)c3ccc(N4C[C@@H](C)N[C@@H](C)C4)cc3)n[nH]2)cc(OC)c1` [AZD-4547]: the Kd in experiment [1] is > 30 µM (inactive); in experiment [2], > 30 µM (inactive); in experiment [3], > 30 µM (inactive); in experiment [5] it was 0.354 µM (active); in experiment [6], > 30 µM (inactive).
Regarding `C[C@@H]1CN(Cc2ccc(F)cc2)[C@@H](C)CN1C(=O)c1cc2c(C(=O)C(=O)N(C)C)cn(C)c2cc1Cl` [TALMAPIMOD], the Kd in experiment [1], in experiment [2], in experiment [3], in experiment [4], in experiment [5] and in experiment [6] was > 30 µM (inactive) each time.
On to `CCS(=O)(=O)N1CC(CC#N)(n2cc(-c3ncnc4[nH]ccc34)cn2)C1` [BARICITINIB], for which the Kd in experiment [1], in experiment [2], in experiment [3], in experiment [4], in experiment [5] and in experiment [6] was > 30 µM (inactive) in each case.
Regarding `COc1ccc(-c2ccc3c(N4CCOC[C@@H]4C)nc(N4CCOC[C@@H]4C)nc3n2)cc1CO` [AZD-8055], the Kd in experiment [1], in experiment [2], in experiment [3], in experiment [4], in experiment [5] and in experiment [6] was > 30 µM (inactive) throughout.
For the compound `CN1CC[C@@H](c2c(O)cc(O)c3c(=O)cc(-c4ccccc4Cl)oc23)[C@@H]1CO`, the Kd in experiment [1], in experiment [2], in experiment [3], in experiment [4], in experiment [5] and in experiment [6] was > 30 µM (inactive) throughout.
For the compound `C=CC(=O)N1CCC(Oc2cc3c(Nc4ccc(Cl)c(Cl)c4F)ncnc3cc2OC)CC1` [POZIOTINIB], the Kd in experiment [1], in experiment [2], in experiment [3], in experiment [4], in experiment [5] and in experiment [6] was > 30 µM (inactive) throughout.
Turning to `Cc1cc(Nc2cc(N3CCN(C)CC3)nc(/C=C/c3ccccc3)n2)n[nH]1` [ENMD-2076], the Kd in experiment [3] and in experiment [5] was > 30 µM (inactive) throughout.
`Cc1nc(N)sc1-c1ccnc(Nc2ccc(N3CCOCC3)cc2)n1` [CYC-116]: the results for the dissociation constant (Kd) in experiment [3] and in experiment [5] were 0.83 µM (active) and > 30 µM (inactive), respectively.
Consider `C[C@@H](c1ccc2nccn2c1)n1nnc2ncc(-c3cnn(C)c3)nc21` [SAVOLITINIB], for which the Kd in experiment [1], in experiment [2], in experiment [3], in experiment [4] and in experiment [6] was > 30 µM (inactive) throughout.
For `CCc1cnn2c(NCc3ccc[n+]([O-])c3)cc(N3CCCC[C@H]3CCO)nc12` [DINACICLIB], the Kd in experiment [1], in experiment [2], in experiment [3] and in experiment [5] was > 30 µM (inactive) in each case.
As for `CNC(=O)c1cc(Oc2ccc(NC(=O)Nc3ccc(Cl)c(C(F)(F)F)c3)c(F)c2)ccn1` [REGORAFENIB], the Kd in experiment [1], in experiment [2], in experiment [3], in experiment [5] and in experiment [6] was > 30 µM (inactive) throughout.
Regarding `COc1cc2nccc(Oc3ccc(NC(=O)Nc4cc(C)on4)c(Cl)c3)c2cc1OC` [TIVOZANIB], the Kd in experiment [1], in experiment [2], in experiment [3], in experiment [5] and in experiment [6] was > 30 µM (inactive) in each case.
For the compound `OCCn1cc(-c2cnc3nnn(Cc4ccc5ncccc5c4)c3n2)cn1` [PF-04217903], the Kd in experiment [1], in experiment [2], in experiment [3] and in experiment [5] was > 30 µM (inactive) throughout.
Take `CNS(=O)(=O)Nc1nccc(Cc2c(C)c3ccc(Oc4ncccn4)cc3oc2=O)c1F` [AVUTOMETINIB]: the Kd in experiment [1], in experiment [2], in experiment [3], in experiment [4] and in experiment [6] was > 30 µM (inactive) throughout.

The record behind these values is ChEMBL document CHEMBL3991601, “The target landscape of clinical kinase drugs” (Science, 2017).
